Assay results from patent publication US20210130401A1, “PEPTIDOMIMETIC INHIBITORS OF THE WDR5-MLL INTERACTION” (THE REGENTS OF THE UNIVERSITY OF MICHIGAN, priority 2017, published 2021).
Read-outs that look alike come from different tables or passages of the source. Starred links: 1 amine or outer side, 2 acyl side, 3 side chain; linkers in the order of their positions; H or OH if unused. Positions of bridges follow the written chain, without caps; N, C: chain ends. Non-standard residues stand in square brackets, D forms with d. Residues, ends and D or L forms follow the SMILES beside them. *: point of attachment. Arg(Nω,Nω'-propylene) = N[C@@H](CCCNC1=NCCCN1)C(=O)O; dαMeDab = C[C@](CCN[*:3])(N[*:1])C(=O)[*:2]; dPhg(4-F) = N[C@@H](C(=O)O)c1ccc(F)cc1; dPhg(2-F) = N[C@@H](C(=O)O)c1ccccc1F; dPhg = N[C@@H](C(=O)O)c1ccccc1; Pyridin(2-yl) = c1ccc(*)nc1; Isobutyryl = CC(C)C(=O)*; Orn = NCCC[C@H](N)C(=O)O; Abu = CC[C@H](N)C(=O)O

Columns and labels:
[1] = test system: MOLM-13 leukemia cells carrying MLL-AF9 fusion; test: cell viability assay (WST-8), MOLM-13; assay type: cell-based; conditions: Homo sapiens, MOLM-13, 96 h, read-out: MOLM-13 IC50 (μM)
WDR5 = target: T1, WDR5 (Homo sapiens, UniProt P61964); test: fluorescence polarization (FP) based competitive binding assay to WDR5 protein
T1 construct: N-terminal His-tagged WDR5 protein (residues 24-334), named WDR5Δ23; made in house; host or cells: E. coli Rosetta 2 (DE3)
Method: The plates were incubated at room temperature on a shaker for 3h, and then the mP values were measured using the Tecan Infinite M-1000 plate reader (Tecan U.S., Research Triangle Park, N.C.).

[2] = amide bond, 14-membered ring, HATU/DIEA, DMF, with chain assembly

Molecule | IC50 [1] [µM] | IC50 (WDR5) [nM] | Ki (WDR5) [nM] | also measured
N-((3R,6S,9S,12R)-6-ethyl-9-(3-guanidinopropyl)-2,5,8,11-tetraoxo-3-phenyl-1,4,7,10-tetraazacyclotridecan-12-yl)isobutyramide |  |  |  | ring closure, yield after HPLC (amide bond, 13-membered ring, HATU/DIEA, DMF, with chain assembly): 24.5%
CC[C@@H]1NC(=O)[C@H](CCCNC(=N)NS(=O)(=O)c2c(C)c(C)c3c(c2C)CC(C)(C)O3)NC(=O)[C@](C)(NC(=O)C(C)C)CC=CCN(C)C(=O)[C@@H](c2ccc(Cl)cc2)NC1=O |  |  |  | ring closure, yield after HPLC (from (R)—N-((6S,9S,12R)-12-(4-chlorophenyl)-9-ethyl-1-imino-14-methyl-7,10,13-trioxo-1-(2,2,4,6,7-pentamethyl-2,3-dihydrobenzofuran-5-sulfonamido)-2,8,11,14-tetraazaheptadec-16-en-6-yl)-2-isobutyramido-2-methylpent-4-enamide, rcm bond, 16-membered ring, Hoveyda-Grubbs II (0.5+0.5 eq), CH2Cl2, 45.0 °C, 3 steps): 11%
CC[C@@H]1NC(=O)[C@H](CCCNC(=N)NS(=O)(=O)c2c(C)c(C)c3c(c2C)CC(C)(C)O3)NC(=O)[C@](C)(NC(=O)C(C)C)CC=CCCCNC(=O)[C@@H](c2ccccc2)NC1=O |  |  |  | ring closure, yield after HPLC (from iPrCO-(R)-αMe-allylGly-Arg(Pbf)-Abu-dPhg-NH-(pent-4-enyl)?, rcm bond, 18-membered ring, Hoveyda-Grubbs II (0.5 eq), CH2Cl2, 25.0 °C, 3 steps): 46%
CC[C@@H]1NC(=O)[C@H](CCCNc2ccccn2)NC(=O)[C@](C)(NC(=O)C(C)C)CCNC(=O)[C@@H](c2ccccc2)NC1=O [Cpd. No. 12, N-((3R,6S,9S,12R)-6-ethyl-12-methyl-2,5,8,11-tetraoxo-3-phenyl-9-(3-(pyridin-2-ylamino)propyl)-1,4,7,10-tetraazacyclotetradecan-12-yl)isobutyramide] (Isobutyryl-[dαMeDab][Orn](Pyridin(2-yl))[Abu][dPhg]; lactam 1-C) | > 10 | 3.25 | < 1 | 
CC[C@@H]1NC(=O)[C@H](CCCNC2=NCCCN2)NC(=O)[C@](C)(NC(=O)C(C)C)CCNC(=O)[C@@H](c2ccccc2)NC1=O [Cpd. No. 92, N-((3R,6S,9S,12R)-6-ethyl-12-methyl-2,5,8,11-tetraoxo-3-phenyl-9-(3-((1,4,5,6-tetrahydropyrimidin-2-yl)amino)propyl)-1,4,7,10-tetraazacyclotetradecan-12-yl)isobutyramide] (Isobutyryl-[dαMeDab][Arg(Nω,Nω'-propylene)][Abu][dPhg]; lactam 1-C) | 0.033 | 1.86 | < 1 | 
N-((3R,6S,12R)-6-ethyl-12-methyl-2,5,8,11-tetraoxo-3-phenyl-9-(3-phenylpropyl)-1,4,7,10-tetraazacyclotetradecan-12-yl)isobutyramide |  |  |  | ring closure, yield after HPLC [2]: 7%
N-((3R,6S,9S,12R)-6-ethyl-9-(3-guanidinopropyl)-2,5,8,11-tetraoxo-3-phenyl-1,4,7,10-tetraazacyclopentadecan-12-yl)isobutyramide |  |  |  | ring closure, yield after HPLC (amide bond, 15-membered ring, HATU/DIEA, DMF, with chain assembly): 21.5%
CC[C@@H]1NC(=O)[C@H](CCCNC(=N)NS(=O)(=O)c2c(C)c(C)c3c(c2C)CC(C)(C)O3)NC(=O)[C@](C)(NC(=O)C(C)C)CC=CCNC(=O)[C@@H](c2ccccc2)NC1=O |  |  |  | ring closure, yield after HPLC (from iPrCO-(R)-αMe-allylGly-Arg(Pbf)-Abu-dPhg-NH-allyl?, rcm bond, 16-membered ring, Hoveyda-Grubbs II (0.5 eq), CH2Cl2, 25.0 °C, 3 steps): 53%
CC[C@@H]1NC(=O)[C@H](CCCNC2=NCCCN2)NC(=O)[C@](C)(NC(=O)C(C)C)CCNC(=O)[C@@H](c2ccc3ccccc3c2)NC1=O [Cpd. No. 98, N-((3R,6S,9S,12R)-6-ethyl-12-methyl-3-(naphthalen-2-yl)-2,5,8,11-tetraoxo-9-(3-((1,4,5,6-tetrahydropyrimidin-2-yl)amino)propyl)-1,4,7,10-tetraazacyclotetradecan-12-yl)isobutyramide] | 0.039 | 2.54 | < 1 | 
CC(C)C(=O)N[C@]1(C)CCNC(=O)[C@@H](c2ccccc2)NC(=O)[C@H](C(C)C)NC(=O)[C@H](CCCNC(=N)N)NC1=O [Cpd. No. 89, N-((3R,6S,9S,12R)-9-(3-guanidinopropyl)-6-isopropyl-12-methyl-2,5,8,11-tetraoxo-3-phenyl-1,4,7,10-tetraazacyclotetradecan-12-yl)isobutyramide] (Isobutyryl-[dαMeDab]RV[dPhg]; lactam 1-C) | > 10 | 1.83 | < 1 | 
CC[C@@H]1NC(=O)[C@H](CCCNC(=N)N)NC(=O)[C@](C)(NC(=O)C(C)C)CCNC(=O)[C@@H](c2ccccc2F)NC1=O [Cpd. No. 79, N-((3R,6S,9S,12R)-6-ethyl-3-(2-fluorophenyl)-9-(3-guanidinopropyl)-12-methyl-2,5,8,11-tetraoxo-1,4,7,10-tetraazacyclotetradecan-12-yl)isobutyramide] (Isobutyryl-[dαMeDab]R[Abu][dPhg(2-F)]; lactam 1-C) | 0.35 | 0.32 | < 1 | 
CC[C@@H]1NC(=O)[C@H](CCCN/C(=N\C)NC)NC(=O)[C@](C)(NC(=O)C(C)C)CC=CCNC(=O)[C@@H](c2ccccc2)NC1=O |  |  |  | ring closure, yield after HPLC (from (R)—N-((8S,11S,14R,Z)-11-ethyl-3-(methylamino)-9,12,15-trioxo-14-phenyl-2,4,10,13,16-pentaazanonadeca-2,18-dien-8-yl)-2-isobutyramido-2-methylpent-4-enamide, rcm bond, 16-membered ring, Hoveyda-Grubbs II (0.5 eq), CH2Cl2, 25.0 °C, 3 steps): 27%
N-((3R,6S,12R)-6-ethyl-12-methyl-2,5,8,11-tetraoxo-9-phenethyl-3-phenyl-1,4,7,10-tetraazacyclotetradecan-12-yl)isobutyramide |  |  |  | ring closure, yield after HPLC [2]: 7%
CC[C@@H]1NC(=O)[C@H](CCCNC(=N)NC(C)=O)NC(=O)[C@](C)(NC(=O)C(C)C)CCNC(=O)[C@@H](c2ccccc2)NC1=O [Cpd. No. 91, N-((3R,6S,9S,12R)-9-(3-(3-acetylguanidino)propyl)-6-ethyl-12-methyl-2,5,8,11-tetraoxo-3-phenyl-1,4,7,10-tetraazacyclotetradecan-12-yl)isobutyramide] (Isobutyryl-[dαMeDab]R(Ac)[Abu][dPhg]; lactam 1-C) | 0.47 | 3.65 | < 1 | 
CC[C@@H]1NC(=O)[C@H](CCCN/C(=N\C)NS(=O)(=O)c2c(C)c(C)c3c(c2C)CC(C)(C)O3)NC(=O)[C@](C)(NC(=O)C(C)C)CC=CCNC(=O)[C@@H](c2ccccc2)NC1=O |  |  |  | ring closure, yield after HPLC (from (R)—N-((8S,11S,14R,E)-11-ethyl-9,12,15-trioxo-3-(2,2,4,6,7-pentamethyl-2,3-dihydrobenzofuran-5-sulfonamido)-14-phenyl-2,4,10,13,16-pentaazanonadeca-2,18-dien-8-yl)-2-isobutyramido-2-methylpent-4-enamide, rcm bond, 16-membered ring, Hoveyda-Grubbs II (0.5 eq), CH2Cl2, 25.0 °C, 3 steps): 75%
N-((3R,6S,9S,12R)-6-ethyl-9-(3-guanidinopropyl)-2,5,8,11-tetraoxo-3-phenyl-1,4,7,10-tetraazacyclohexadecan-12-yl)isobutyramide |  |  |  | ring closure, yield after HPLC (amide bond, 16-membered ring, HATU/DIEA, DMF, 5.0 mM, with chain assembly): 12.7%
N-((3R,6S,9S,12R)-6-ethyl-9-(3-guanidinopropyl)-12-methyl-2,5,8,11-tetraoxo-3-phenyl-1,4,7,10-tetraazacyclotetradecan-12-yl)isobutyramide |  |  |  | ring closure, yield after HPLC [2]: 8.7%
CC[C@@H]1NC(=O)[C@H](CCCNC(=N)NS(=O)(=O)c2c(C)c(C)c3c(c2C)CC(C)(C)O3)NC(=O)[C@](C)(NC(=O)C(C)C)CC=CCN(C)C(=O)[C@@H](c2ccccc2)NC1=O |  |  |  | ring closure, yield after HPLC (from (R)—N-((6S,9S,12R)-9-ethyl-1-imino-14-methyl-7,10,13-trioxo-1-(2,2,4,6,7-pentamethyl-2,3-dihydrobenzofuran-5-sulfonamido)-12-phenyl-2,8,11,14-tetraazaheptadec-16-en-6-yl)-2-isobutyramido-2-methylpent-4-enamide, rcm bond, 16-membered ring, Hoveyda-Grubbs II (0.5+0.5 eq), CH2Cl2, 45.0 °C, 3 steps): 18%
CC[C@@H]1NC(=O)[C@H](CCCNC(=N)N)NC(=O)[C@](C)(NC(=O)C(C)C)CCNC(=O)[C@@H](c2ccc(F)cc2)NC1=O [Cpd. No. 53, N-((3R,6S,9S,12R)-6-ethyl-3-(4-fluorophenyl)-9-(3-guanidinopropyl)-12-methyl-2,5,8,11-tetraoxo-1,4,7,10-tetraazacyclotetradecan-12-yl)isobutyramide] (Isobutyryl-[dαMeDab]R[Abu][dPhg(4-F)]; lactam 1-C) | 0.38 | 0.878 | < 1 | 
CC[C@@H]1NC(=O)[C@H](CCCNC(=N)N)NC(=O)[C@](C)(NC(=O)C(C)C)CCNC(=O)[C@@H](c2cccc(OC)c2)NC1=O [Cpd. No. 94, N-((3R,6S,9S,12R)-6-ethyl-9-(3-guanidinopropyl)-3-(3-methoxyphenyl)-12-methyl-2,5,8,11-tetraoxo-1,4,7,10-tetraazacyclotetradecan-12-yl)isobutyramide] | 0.56 | 4 | < 1 | 
CC[C@@H]1NC(=O)[C@H](CCCNC(=N)N)NC(=O)[C@](C)(NC(=O)C(C)C)CCNC(=O)[C@@H](c2ccc(OC)cc2)NC1=O [Cpd. No. 93, N-((3R,6S,9S,12R)-6-ethyl-9-(3-guanidinopropyl)-3-(4-methoxyphenyl)-12-methyl-2,5,8,11-tetraoxo-1,4,7,10-tetraazacyclotetradecan-12-yl)isobutyramide] | 0.083 | 1.79 | < 1 | 
CC[C@@H]1NC(=O)[C@H](CCCNC(=N)N)NC(=O)[C@](C)(NC(=O)C(C)C)CCNC(=O)[C@@H](c2cccc(Cl)c2)NC1=O [Cpd. No. 84, N-((3R,6S,9S,12R)-3-(3-chlorophenyl)-6-ethyl-9-(3-guanidinopropyl)-12-methyl-2,5,8,11-tetraoxo-1,4,7,10-tetraazacyclotetradecan-12-yl)isobutyramide] | 0.51 | 1.48 | < 1 | 
CC[C@@H]1NC(=O)[C@H](CCCNC(=N)N)NC(=O)[C@](C)(NC(=O)C(C)C)CCNC(=O)[C@@H](c2ccc3ccccc3c2)NC1=O [Cpd. No. 82, N-((3R,6S,9S,12R)-6-ethyl-9-(3-guanidinopropyl)-12-methyl-3-(naphthalen-2-yl)-2,5,8,11-tetraoxo-1,4,7,10-tetraazacyclotetradecan-12-yl)isobutyramide] | 0.054 | 2.3 | < 1 | 
